Earlier results on 1 compound are cited in patent US20140234433A1, “Topical Composition for Stimulating Epidermis and Dermis Layers of the Skin” (priority 2013, published 2014).

This data set relates to facial skin.

Take `CC1=C(/C=C/C(C)=C/C=C/C(C)=C/C(=O)O)C(C)(C)CCC1` [tretinoin]: the histological characteristics result (0.001% dosage) is “same histological characteristics as the inactive base material”. For the same compound, the histological response result (0.01% and 0.05%) is on record as “increased response with an increase in tretinoin concentrations”. In addition, where the note is “24 weeks”, the epidermal thickness entry was “increase”, the “findings in the dermis” value is reported as “no positive findings”, the melanocytes entry is “decrease” and the stratum corneum entry is “stratum corneum compactness”. Where the note is “24 weeks, 1 layer to 2-3 layers”, the granular layer thickness result is listed as “increase”. Besides, the dermal changes entry (48 weeks of treatment) is listed as “limited”. Moreover, the “subjects showing erythema, scaling and peeling, and reporting stinging” value (average of the studies) was “approximately 80%”. For the same compound, the “dermal findings on continued use” value (continued use up to 4 years) was “decrease in elastin and perivascular inflammation”.
